According to patent US20230405075A1, “PR[…] EXTRACT OR ITS ISOLATED ALKALOIDS AND CANNABIS EXTRACT OR ITS ISOLATED CANNABINOIDS, AND COSMETIC AND/OR PHARMACEUTICAL USE THEREOF” (HERBA INVEST, PTE. LTD., priority 2020, published 2023):

Assay: Franz cell diffusion assay, transcutaneous permeation
Type: in vitro ADME, porcine
Conditions: in the presence of the combined extracts
Protocol: The transcutaneous permeation of w/o creams according to Examples 2 and 3 were evaluated by using the Franz cell diffusion assay and compared with the permeation of w/o creams containing Mitragyna alkaloids only and Cannabis cannabinoids only, according to examples 4 and 5.
As known, Franz cell diffusion assay is the most common and reliable method to evaluate the transcutaneous permeation of molecules. Such an assay is well known in the art and a detailed description is not necessary.
The assay conditions were as follows: • cells used: 0.9 and 1.4 mm diameter. • membrane: porcine ear skin, 1 mm thickness. • temperature of incubation: 32° C.
The results of the evaluations are shown in FIG. 1, where the different bars relate to: • a cream according to Example 4, with 1% Mitragyna alkaloids; • a cream according to Example 5, with 1% cannabinoids; • a cream according to Example 2, containing 0.5% purified Mitragyna alkaloids and 0.5% cannabinoids; • a cream with enhancer according to Example 3, also containing 0.5% purified Mitragyna alkaloids and 0.5% cannabinoids, • respectively.
The particular w/o cream according to Example 2 used in the evaluation of transcutaneous permeation had the following composition (percentages in weight): • Diisostearoyl Polyglyceryl-3 Dimer Dilinoleate: 3% • Synthetic Beeswax: 0.2% • Hydrogenated Castor Oil: 0.3% • Paraffinum liquidum: 7% • Isopropyl Myristate: 7% • Hydrogenated polyisobutene: 7.5% • Aqua (water): 60% • Magnesium sulphate heptahydrate: 1% • Mitragyna purified extract (or isolated alkaloids) alcoholic solution: the amount/concentration resulting in a 0.5% alkaloid concentration of in the final formulation; • Cannabis purified extract (or isolated cannabinoids) alcoholic solution: the amount/concentration resulting in a 0.5% […] concentration in the final formulation.

| SMILES | concentration detected in Franz cell receptor (order of selective passage) |
| --- | --- |
| C=C(C)[C@@H]1CCC(C)=C[C@H]1c1c(O)cc(CCCCC)cc1O [cannabidiol] | increase in concentration |
| C=C[C@H]1CN2CCc3c([nH]c4cccc(OC)c34)[C@H]2C[C@@H]1/C(=C\OC)C(=O)OC [isopaynantheine] | highest concentrations detected |
| CC[C@@H]1CN2CCc3c([nH]c4cccc(OC)c34)[C@@H]2C[C@@H]1/C(=C\OC)C(=O)OC [mitragynine] | in lower percentage |
| C=C[C@H]1CN2CCc3c([nH]c4cccc(OC)c34)[C@@H]2C[C@@H]1/C(=C\OC)C(=O)OC [paynantheine] | in lower percentage |
| CC[C@@H]1CN2CCc3c([nH]c4cccc(OC)c34)[C@H]2C[C@@H]1/C(=C\OC)C(=O)OC [speciociliatine] | highest concentrations detected |
